# From ChEMBL document CHEMBL1201862, “PubChem BioAssay data set” (2004)
# Activity calls are given as the source filed them.
# Experiments:
# Assay type in all cases: functional
# [1] = target: Interleukin-1 receptor-associated kinase 4 (Homo sapiens, UniProt Q9NWZ3)
# [2] = target: Cyclin-dependent kinase 1 (Homo sapiens, UniProt P06493);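 note: Kinome-wide panel profiling, with the target listed as panel member CDC2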
# [3] = target: Mitogen-activated protein kinase 13 (Homo sapiens, UniProt O15264)
# [4] = target: Serine/threonine-protein kinase pim-1 (Homo sapiens, UniProt P11309)
# Sequence of Serine/threonine-protein kinase pim-1 (P11309 whole entry): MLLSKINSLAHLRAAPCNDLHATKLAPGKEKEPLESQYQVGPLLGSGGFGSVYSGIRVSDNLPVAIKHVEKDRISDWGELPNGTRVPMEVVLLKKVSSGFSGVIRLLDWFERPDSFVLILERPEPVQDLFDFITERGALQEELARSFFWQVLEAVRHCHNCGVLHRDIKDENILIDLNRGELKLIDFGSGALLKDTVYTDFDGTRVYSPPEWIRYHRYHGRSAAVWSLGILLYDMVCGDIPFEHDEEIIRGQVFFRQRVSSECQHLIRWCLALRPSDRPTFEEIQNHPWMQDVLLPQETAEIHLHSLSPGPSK
# [5] = target: Mitogen-activated protein kinase kinase kinase kinase 2 (Homo sapiens, UniProt Q12851);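 note: measured as one member of a kinome-wide kinase panel, with MAP4K2 as the panel entry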
# [6] = target: Hepatocyte growth factor receptor (Homo sapiens, UniProt P08581);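 note: kinase panel profiling across the kinome, with MET as the panel member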
# [7] = target: Cyclin-dependent kinase 8 (Homo sapiens, UniProt P49336); assay: Navigating the Kinome. Panel member name: CDK8
# [8] = target: Dual specificity mitogen-activated protein kinase kinase 2 (Homo sapiens, UniProt P36507); assay: Navigating the Kinome. Panel member name: MAP2K2
# LIM domain kinase 1 = LIM domain kinase 1 (Homo sapiens, UniProt P53667); assay: Navigating the Kinome. Panel member name: LIMK1
# [9] = target: Serine/threonine-protein kinase Chk1 (Homo sapiens, UniProt O14757);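 note: measured as one member of a kinome-wide kinase profiling panel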
# Sequence of Serine/threonine-protein kinase Chk1 (O14757 whole entry): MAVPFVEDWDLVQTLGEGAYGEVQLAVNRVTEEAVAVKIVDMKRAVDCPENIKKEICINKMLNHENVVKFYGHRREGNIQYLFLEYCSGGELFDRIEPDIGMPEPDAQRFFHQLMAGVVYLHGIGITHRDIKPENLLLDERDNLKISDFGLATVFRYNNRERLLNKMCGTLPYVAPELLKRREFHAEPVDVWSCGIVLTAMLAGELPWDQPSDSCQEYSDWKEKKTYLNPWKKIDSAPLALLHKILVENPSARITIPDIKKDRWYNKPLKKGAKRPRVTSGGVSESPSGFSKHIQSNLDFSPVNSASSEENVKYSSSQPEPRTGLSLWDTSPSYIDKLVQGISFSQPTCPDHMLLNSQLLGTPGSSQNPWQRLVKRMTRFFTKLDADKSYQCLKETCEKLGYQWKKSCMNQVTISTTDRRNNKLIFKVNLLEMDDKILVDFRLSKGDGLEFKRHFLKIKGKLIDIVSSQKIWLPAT
# [10] = target: Dual specificity protein kinase CLK4 (Homo sapiens, UniProt Q9HAZ1)
# [11] = target: Dual specificity tyrosine-phosphorylation-regulated kinase 1A (Homo sapiens, UniProt Q13627);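 note: measured against DYRK1A as one member of a broad kinome profiling panel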
# [12] = target: Neuropeptides B/W receptor type 1 (Homo sapiens, UniProt P48145); assay: GPR7 antagonist potency, late-stage follow-up, cell-based, fluorescence, dose response, set 5 (AID 588566)
# [13] = target: Melanin-concentrating hormone receptor 1 (Homo sapiens, UniProt Q99705); assay: Late-stage fluorescence-based counterscreen for antagonists of the G-protein coupled receptor 7 (GPR7): cell-based dose response assay to identify antagonists of the melanin-concentrating hormone receptor 1 (MCHR1) Set 5.
# CHO-K1 = assay: (§1) Counterscreen for antagonists of the orexin 1 receptor (OX1R; HCRTR1): Homogeneous time resolved fluorescence (HTRF)-based cell-based dose response assay to identify antagonists of the parental CHO-K1 cell line. [Related pubchem assays (depositor defined):AID434989, AID435008, AID463079, AID485270, AID492963, AID492964, AID492965, AID493232, AID504699, AID504701]; settings: Cricetulus griseus
# [14] = as §1, with “Fluorescence-based” for “Homogeneous time resolved fluorescence (HTRF)-based”, “cell-based high throughput” for “cell-based”, “CHO” for “CHO-K1”
# [15] = target: T1, Orexin/Hypocretin receptor type 1 (Homo sapiens, UniProt O43613); assay: Homogeneous Time Resolved Fluorescence (HTRF)-based cell-based high throughput dose response assay for antagonists of the orexin 1 receptor (OX1R; HCRTR1). [Related pubchem assays (depositor defined):AID434989, AID435008, AID463079, AID485270, AID492963, AID492964, AID492965, AID493232, AID504717, AID504718]
# T1 sequence (O43613 whole entry): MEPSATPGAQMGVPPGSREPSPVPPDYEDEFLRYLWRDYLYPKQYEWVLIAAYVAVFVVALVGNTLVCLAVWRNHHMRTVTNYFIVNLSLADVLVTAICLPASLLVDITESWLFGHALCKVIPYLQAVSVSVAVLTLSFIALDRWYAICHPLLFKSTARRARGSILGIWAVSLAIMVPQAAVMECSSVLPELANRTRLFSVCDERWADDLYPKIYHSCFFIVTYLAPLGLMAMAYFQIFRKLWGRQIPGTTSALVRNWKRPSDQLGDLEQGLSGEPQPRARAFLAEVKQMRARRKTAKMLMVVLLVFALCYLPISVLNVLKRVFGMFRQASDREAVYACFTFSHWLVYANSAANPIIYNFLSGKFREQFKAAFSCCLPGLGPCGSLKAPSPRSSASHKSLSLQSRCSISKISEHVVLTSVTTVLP
# [16] = target: T1, Orexin/Hypocretin receptor type 1; assay: Fluorescence-based cell-based high throughput dose response assay for antagonists of the orexin 1 receptor (OX1R; HCRTR1). [Related pubchem assays (depositor defined):AID434989, AID435008, AID463079, AID485270, AID492963, AID492964, AID492965, AID493232, AID504717, AID504718]
# Orexin receptor type 2 [17] = target: T2, Orexin receptor type 2 (Homo sapiens, UniProt O43614); assay: Counterscreen assay for antagonists of the orexin 1 receptor (OX1R; HCRTR1): Fluorescence-based cell-based dose response assay for antagonists of the orexin 2 receptor (OX2R; HCRTR2), run by assay provider.
# T2 sequence (O43614 whole entry): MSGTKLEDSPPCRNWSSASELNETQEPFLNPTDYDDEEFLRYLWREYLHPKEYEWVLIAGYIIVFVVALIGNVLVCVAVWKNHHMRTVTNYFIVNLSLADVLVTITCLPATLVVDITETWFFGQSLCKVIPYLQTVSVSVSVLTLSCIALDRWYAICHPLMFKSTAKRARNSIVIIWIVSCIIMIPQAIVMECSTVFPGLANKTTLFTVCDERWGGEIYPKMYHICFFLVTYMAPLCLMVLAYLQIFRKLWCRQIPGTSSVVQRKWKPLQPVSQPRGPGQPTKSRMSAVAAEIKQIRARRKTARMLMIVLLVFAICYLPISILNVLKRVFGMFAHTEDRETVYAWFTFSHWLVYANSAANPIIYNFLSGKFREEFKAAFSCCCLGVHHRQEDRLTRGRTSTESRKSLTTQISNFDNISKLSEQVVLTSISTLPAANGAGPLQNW
# Orexin receptor type 2 [18] = target: T2, Orexin receptor type 2; assay: Counterscreen assay for antagonists of the orexin 1 receptor (OX1R; HCRTR1): Homogeneous Time Resolved Fluorescence (HTRF)-based cell-based dose response assay for antagonists of the orexin 2 receptor (OX2R; HCRTR2), run by assay provider.
# [19] = target: T3, Sentrin-specific protease 8 (Homo sapiens, UniProt Q96LD8)
# T3 sequence (Q96LD8 whole entry): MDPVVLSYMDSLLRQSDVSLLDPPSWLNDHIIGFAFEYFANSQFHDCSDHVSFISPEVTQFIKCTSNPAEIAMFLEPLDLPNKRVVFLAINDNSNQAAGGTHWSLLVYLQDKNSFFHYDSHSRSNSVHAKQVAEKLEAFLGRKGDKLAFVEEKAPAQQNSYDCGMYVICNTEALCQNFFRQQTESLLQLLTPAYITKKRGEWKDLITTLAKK
# [20] = target: T3, Sentrin-specific protease 8; remark: listed apart in the source
# [21] = target: Benomyl/methotrexate resistance protein (Candida albicans, UniProt P28873); assay: CaMdr1 efflux pump inhibitor potency, dose response, singleplex, Cherry Pick1 hits (AID 588608)
# [22] = target: Multidrug resistance protein CDR2 (Candida albicans (strain SC5314 / ATCC MYA-2876) (Yeast), UniProt P78595); assay: CaCDR2 efflux pump inhibitors in yeast, dose response, S. cerevisiae AD1-8u, singleplex, Cherry Pick1 hits (AID 588604)
# Sequence of Multidrug resistance protein CDR2 (P78595 whole entry): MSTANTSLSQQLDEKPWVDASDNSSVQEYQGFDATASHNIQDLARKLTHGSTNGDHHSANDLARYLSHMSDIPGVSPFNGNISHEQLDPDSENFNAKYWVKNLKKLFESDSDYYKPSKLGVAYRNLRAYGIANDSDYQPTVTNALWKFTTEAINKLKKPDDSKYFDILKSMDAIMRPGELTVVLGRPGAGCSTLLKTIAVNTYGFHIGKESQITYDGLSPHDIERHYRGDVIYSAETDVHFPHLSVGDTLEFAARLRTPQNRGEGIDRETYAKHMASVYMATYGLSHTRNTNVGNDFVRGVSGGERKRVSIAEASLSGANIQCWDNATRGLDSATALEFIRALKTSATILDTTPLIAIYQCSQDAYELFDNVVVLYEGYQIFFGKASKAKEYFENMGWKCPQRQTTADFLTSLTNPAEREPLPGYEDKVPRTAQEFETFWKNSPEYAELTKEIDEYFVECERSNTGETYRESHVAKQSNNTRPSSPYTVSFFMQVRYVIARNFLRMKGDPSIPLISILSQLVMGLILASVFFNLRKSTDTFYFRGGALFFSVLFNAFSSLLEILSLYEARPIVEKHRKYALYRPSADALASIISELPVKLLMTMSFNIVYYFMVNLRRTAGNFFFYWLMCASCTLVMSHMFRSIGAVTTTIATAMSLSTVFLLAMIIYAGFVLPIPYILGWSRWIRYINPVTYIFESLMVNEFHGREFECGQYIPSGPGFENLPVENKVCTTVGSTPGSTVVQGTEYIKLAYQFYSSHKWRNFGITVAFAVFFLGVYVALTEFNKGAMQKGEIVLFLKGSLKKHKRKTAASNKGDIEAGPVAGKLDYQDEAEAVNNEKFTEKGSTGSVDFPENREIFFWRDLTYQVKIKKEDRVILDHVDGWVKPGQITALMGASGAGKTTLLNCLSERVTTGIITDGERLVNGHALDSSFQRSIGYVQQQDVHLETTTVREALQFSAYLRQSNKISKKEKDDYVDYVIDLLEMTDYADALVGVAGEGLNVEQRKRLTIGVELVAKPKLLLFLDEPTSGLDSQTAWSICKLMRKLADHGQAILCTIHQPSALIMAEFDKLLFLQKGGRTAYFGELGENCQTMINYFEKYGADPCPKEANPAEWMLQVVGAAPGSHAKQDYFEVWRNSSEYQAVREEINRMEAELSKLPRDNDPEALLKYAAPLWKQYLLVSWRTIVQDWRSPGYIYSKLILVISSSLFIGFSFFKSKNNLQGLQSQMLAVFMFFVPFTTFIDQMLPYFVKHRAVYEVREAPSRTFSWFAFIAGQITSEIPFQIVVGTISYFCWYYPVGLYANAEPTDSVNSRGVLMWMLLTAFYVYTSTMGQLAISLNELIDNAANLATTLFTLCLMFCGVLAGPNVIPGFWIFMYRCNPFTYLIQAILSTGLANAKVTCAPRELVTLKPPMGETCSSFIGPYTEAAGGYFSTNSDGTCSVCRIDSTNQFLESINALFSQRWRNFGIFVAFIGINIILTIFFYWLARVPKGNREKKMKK
# [23] = target: ALK tyrosine kinase receptor (Homo sapiens, UniProt Q9UM73);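 note: ALK tested as one member of a kinase panel screen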
# Sequence of ALK tyrosine kinase receptor (Q9UM73 whole entry): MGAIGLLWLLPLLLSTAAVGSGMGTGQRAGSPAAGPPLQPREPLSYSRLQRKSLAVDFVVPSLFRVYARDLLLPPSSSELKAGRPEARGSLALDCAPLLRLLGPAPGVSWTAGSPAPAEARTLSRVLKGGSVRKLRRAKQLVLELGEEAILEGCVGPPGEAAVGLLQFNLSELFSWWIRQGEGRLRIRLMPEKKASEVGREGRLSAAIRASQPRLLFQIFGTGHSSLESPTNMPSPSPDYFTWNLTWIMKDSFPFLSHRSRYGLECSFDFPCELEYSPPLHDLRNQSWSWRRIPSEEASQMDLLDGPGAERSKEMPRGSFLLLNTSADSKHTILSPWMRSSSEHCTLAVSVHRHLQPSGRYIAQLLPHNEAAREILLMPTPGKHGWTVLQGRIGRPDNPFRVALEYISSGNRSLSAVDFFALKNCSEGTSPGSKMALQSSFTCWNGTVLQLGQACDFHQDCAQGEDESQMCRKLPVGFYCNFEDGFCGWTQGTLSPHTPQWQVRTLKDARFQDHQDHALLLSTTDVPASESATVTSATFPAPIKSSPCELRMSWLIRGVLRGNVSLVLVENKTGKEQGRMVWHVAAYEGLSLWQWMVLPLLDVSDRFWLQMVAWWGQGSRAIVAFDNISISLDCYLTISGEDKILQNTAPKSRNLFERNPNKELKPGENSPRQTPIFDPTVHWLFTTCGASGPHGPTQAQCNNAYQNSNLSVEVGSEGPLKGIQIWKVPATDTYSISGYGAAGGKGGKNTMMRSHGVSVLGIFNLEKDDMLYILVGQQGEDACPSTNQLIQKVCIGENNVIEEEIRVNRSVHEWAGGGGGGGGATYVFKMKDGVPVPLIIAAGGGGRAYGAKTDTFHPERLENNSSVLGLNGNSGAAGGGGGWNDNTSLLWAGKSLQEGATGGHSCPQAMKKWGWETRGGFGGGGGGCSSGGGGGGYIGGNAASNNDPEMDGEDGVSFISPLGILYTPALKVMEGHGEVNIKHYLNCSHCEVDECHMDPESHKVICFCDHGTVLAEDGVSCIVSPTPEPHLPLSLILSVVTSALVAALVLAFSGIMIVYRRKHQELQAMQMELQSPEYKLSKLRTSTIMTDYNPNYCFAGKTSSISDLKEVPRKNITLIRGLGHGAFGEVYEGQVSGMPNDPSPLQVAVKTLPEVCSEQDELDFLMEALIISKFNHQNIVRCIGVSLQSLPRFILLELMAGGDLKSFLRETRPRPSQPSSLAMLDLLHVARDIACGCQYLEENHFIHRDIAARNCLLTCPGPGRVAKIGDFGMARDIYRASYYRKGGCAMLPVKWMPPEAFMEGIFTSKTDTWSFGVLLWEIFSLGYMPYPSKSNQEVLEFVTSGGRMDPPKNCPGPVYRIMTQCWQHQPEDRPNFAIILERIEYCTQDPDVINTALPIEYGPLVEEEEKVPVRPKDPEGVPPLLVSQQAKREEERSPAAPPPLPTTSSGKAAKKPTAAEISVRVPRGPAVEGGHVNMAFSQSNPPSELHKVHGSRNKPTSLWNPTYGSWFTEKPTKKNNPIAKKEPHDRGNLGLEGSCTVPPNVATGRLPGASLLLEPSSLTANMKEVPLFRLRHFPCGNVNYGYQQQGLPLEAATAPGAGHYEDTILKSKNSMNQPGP
# Wee1-like protein kinase = Wee1-like protein kinase (Homo sapiens, UniProt P30291); assay: Navigating the Kinome. Panel member name: WEE1
# Aurora kinase A = Aurora kinase A (Homo sapiens, UniProt O14965);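 note: value from the Navigating the Kinome kinase panel profiling, panel entry STK6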
# Aurora kinase B = Aurora kinase B (Homo sapiens, UniProt Q96GD4)
# [24] = target: Cyclin-dependent kinase 19 (Homo sapiens, UniProt Q9BWU1); assay: Navigating the Kinome. Panel member name: CDC2L6
# Sequence of Cyclin-dependent kinase 1 (P06493 whole entry): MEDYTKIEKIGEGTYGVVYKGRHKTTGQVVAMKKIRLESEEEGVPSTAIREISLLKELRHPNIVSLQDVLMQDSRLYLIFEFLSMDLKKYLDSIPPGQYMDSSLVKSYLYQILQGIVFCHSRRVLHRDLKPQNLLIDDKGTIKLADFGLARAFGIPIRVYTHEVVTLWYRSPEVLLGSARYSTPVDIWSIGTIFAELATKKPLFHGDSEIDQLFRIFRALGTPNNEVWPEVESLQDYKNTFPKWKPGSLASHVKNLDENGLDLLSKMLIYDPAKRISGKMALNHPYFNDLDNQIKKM
smiles,measurement,setting,value
CS(=O)(=O)Nc1ccccc1-c1ccc2c(c1)Nc1ccccc1NC2=O,Ki,[1],3.98 µM (active)
same,Ki,[2],7.94 µM (active)
Cc1cccc(NC(=O)Nc2ccc(-c3ccc4nccnc4c3N)cc2)c1,Ki,[3],> 7.94 µM (inactive)
Oc1ccc(Cl)cc1C1=NNC(c2ccc3c(c2)OCCO3)C1 (centres undefined),Ki,[4],2 µM (active)
same,Ki,[5],2.51 µM (active)
same,Ki,[6],1.26 µM (active)
same,Ki,[7],3.16 µM (active)
same,Ki,[8],3.16 µM (active)
O=C(O)c1cnc2sccn2c1=O,Ki,LIM domain kinase 1,50.1 µM (active)
same,Ki,[9],39.8 µM (active)
same,Ki,[10],39.8 µM (active)
same,Ki,[11],63.1 µM (active)
CCOc1ccc(Oc2c(Cl)c(C)nn(Cc3cccc4ccccc34)c2=O)cc1,IC50,[12],1.88 µM (active)
same,IC50,[13],14.8 µM (inactive)
CCOc1cc(C(=S)N2CCOCC2)cc(Br)c1OS(=O)(=O)c1ccccc1,IC50,CHO-K1,> 66.2 µM (inactive)
same,IC50,[14],> 49.8 µM (inactive)
same,IC50,[15],4.56 µM (active)
same,IC50,[16],8.68 µM (active)
same,IC50,Orexin receptor type 2 [17],6.2 µM (active)
same,IC50,Orexin receptor type 2 [18],> 50 µM (inactive)
same,IC50,[19],8.6 µM (active)
same,IC50,[20],8.96 µM (active)
CCN(CC)c1ccc(/C=C/c2cc(-c3ccccc3)c3ccccc3n2)cc1,EC50,[21],3.32 µM (active)
same,EC50,[22],16.1 µM (active)
CCN1CCN(c2ccc(Nc3nccc(Nc4ccc5[nH]ncc5c4)n3)cc2)CC1,Ki,[23],1 µM (active)
same,Ki,Wee1-like protein kinase,0.158 µM (active)
Cc1ccc(F)c(NC(=O)Nc2ccc(-c3cc(CO)c(F)c4[nH]nc(N)c34)cc2)c1,Ki,Aurora kinase A,0.126 µM (active)
same,Ki,Aurora kinase B,0.01 µM (active)
same,Ki,[24],2 µM (active)
